# In patent US20250268909A1, “Combination Therapy” (US Oncology Corporate, Inc., priority 2022, published 2025):
# Where “and” joins values, the source holds several entries; their conditions need not be identical. Equal values may be shown once.
# Columns and labels:
# [1] = phase II trial, dose modifications in ER+/ERBB2-negative cohort (safety population); assay type: in vivo, human
# Protocol: (§1) Administration of 5 μg/kg filgrastim was allowed for treatment-limiting neutropenia, and loperamide was used to treat diarrhea but was not allowed prophylactically in cycle 1.
# Incidence and grades of AEs for all patients were analyzed using the safety population which included all patients (eligible and ineligible) who received at least 1 dose of study drug. Toxic effects were reported and tabulated by numbers and frequencies for all related AEs. SAS statistical software version 9.4 (SAS Institute) was used for all data analysis. Data were analyzed from March through May 2019.
# Pgp = Pgp (Homo sapiens, UniProt P08183); conditions: cell culture model; cited from earlier work
# Chain of Pgp (P08183 whole entry): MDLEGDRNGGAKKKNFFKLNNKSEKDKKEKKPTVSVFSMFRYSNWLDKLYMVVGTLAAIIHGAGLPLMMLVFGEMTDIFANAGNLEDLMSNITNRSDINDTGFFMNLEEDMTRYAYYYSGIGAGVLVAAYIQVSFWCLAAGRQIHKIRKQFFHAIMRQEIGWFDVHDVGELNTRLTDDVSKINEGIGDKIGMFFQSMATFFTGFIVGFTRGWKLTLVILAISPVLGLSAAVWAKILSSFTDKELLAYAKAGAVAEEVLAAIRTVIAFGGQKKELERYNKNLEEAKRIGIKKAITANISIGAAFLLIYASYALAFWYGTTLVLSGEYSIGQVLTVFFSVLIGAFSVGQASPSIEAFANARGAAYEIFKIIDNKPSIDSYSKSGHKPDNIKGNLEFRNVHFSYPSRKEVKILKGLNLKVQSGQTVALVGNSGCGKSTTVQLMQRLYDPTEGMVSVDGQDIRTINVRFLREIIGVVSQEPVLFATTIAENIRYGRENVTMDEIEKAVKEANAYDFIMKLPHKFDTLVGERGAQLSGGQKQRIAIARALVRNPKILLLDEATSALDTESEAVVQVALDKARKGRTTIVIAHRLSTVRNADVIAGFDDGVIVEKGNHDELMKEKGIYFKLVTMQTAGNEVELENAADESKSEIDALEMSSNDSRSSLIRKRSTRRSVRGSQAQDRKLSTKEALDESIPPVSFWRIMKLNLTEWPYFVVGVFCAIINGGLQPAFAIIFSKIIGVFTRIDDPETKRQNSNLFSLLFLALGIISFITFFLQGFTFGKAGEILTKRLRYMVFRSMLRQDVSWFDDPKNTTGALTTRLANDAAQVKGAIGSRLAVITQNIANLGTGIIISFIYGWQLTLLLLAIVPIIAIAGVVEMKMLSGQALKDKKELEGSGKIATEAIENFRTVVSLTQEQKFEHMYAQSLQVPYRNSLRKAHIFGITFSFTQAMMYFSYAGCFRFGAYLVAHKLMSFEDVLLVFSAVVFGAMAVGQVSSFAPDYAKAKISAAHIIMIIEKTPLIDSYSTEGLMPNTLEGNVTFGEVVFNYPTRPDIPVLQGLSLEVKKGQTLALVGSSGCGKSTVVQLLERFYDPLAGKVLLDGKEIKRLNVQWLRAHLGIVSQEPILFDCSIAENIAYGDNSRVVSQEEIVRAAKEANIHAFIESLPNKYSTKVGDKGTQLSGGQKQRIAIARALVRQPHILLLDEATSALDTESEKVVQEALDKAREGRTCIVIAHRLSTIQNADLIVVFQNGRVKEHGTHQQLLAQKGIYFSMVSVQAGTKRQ
# [2] = tested on: breast cancer xenograft models; conditions: alisertib added to either paclitaxel or docetaxel; cited from earlier work
# [3] = tested on: ER-positive, HER2-negative metastatic or locally recurrent breast cancer; test: randomized phase II trial, ER+/HER2− cohort, efficacy; assay type: in vivo, human
# Excerpt: (§2) Other information about this phase II clinical trial is included in O'Shaughnessy et al., JAMA Network Open. 2021, 4(4):e214103, the entire contents of which are incorporated herein by reference.
# Eligible patients were postmenopausal women aged 18 years or older with metastatic or unresectable locally recurrent breast cancer that was histologically confirmed as ER+/HER2− invasive breast cancer (any progesterone receptor status), with Ki67 greater than 15% in primary or metastatic tissue, or grade 3 TNBC, to enrich for more highly proliferative cancers that may be more dependent on AURKA. HER2− negative was defined as immunohistochemistry (IHC) status of 0, 1+, or 2+(if IHC was 2+, a negative FISH test was required with a ratio <2.0 and an average HER2 copy number <4.0 signals/cell). ER-negative and progesterone receptor (PR)-negative status was defined as ER and PR less than 1% nuclei positive by IHC. […] An Eastern Cooperative Group (ECOG) performance status of 0 or 1 and adequate hematologic, cardiac, renal, and liver function were required. Eligible patients were required to have measurable disease by Response Evaluation Criteria in Solid Tumors (RECIST v 1.1) criteria, or lytic or mixed blastic/lytic bone-only disease. Patients with untreated or progressing brain metastases, or those who required corticosteroids, were not eligible.
# as §1
# (§3) Computed tomography (CT) of chest, abdomen, and pelvis was performed at screening. Chest and abdominal CT imaging were then performed every 8 weeks after initiation of treatment for the first 32 weeks of treatment and every 12 weeks thereafter for the duration of the treatment period, and at End of Treatment (EoT). Pelvic CT imaging was obtained at subsequent tumor assessments only if pelvic metastases were identified at screening. Bone scans were obtained on all patients at screening and then every 12 weeks in patients with bone metastases on their baseline bone scan.
# (§4) Patients were stratified as ER-positive, HER2-negative cohort and TN cohort based on results of ER, progesterone receptor, and HER2 measurements on their metastatic tissue, or, if not available, on their primary breast cancer tissue.
# (§5) Patients' baseline demographic and disease characteristics were summarized for the intent-to-treat population, which included all patients registered on study and were described by means with SDs and medians with ranges for continuous variables and by numbers with percentages for categorical variables. PFS was defined as the time from date of registration in the study to the date of first progression of disease or the date of death. Patients whose disease had not progressed were censored at the last contact date. OS was measured from the date of registration to the date of death. PFS and OS were estimated using Kaplan-Meier methods with 95% CIs in the intent-to-treat population and compared by log-rank tests.
# (§6) The protocol-defined evaluable population included all eligible patients who received at least 1 dose of study drug. CBR and ORR were examined using univariate and multivariate approaches with Fisher exact tests and the logistic regression models. The 95% CIs were estimated for CBR and ORR assuming binomial distribution. A χ^2 test was used to estimate the differences between CBRs and ORRs in the two arms.
# [4] = tested on: TN metastatic or locally recurrent breast cancer; test: randomized phase II trial, TN cohort, efficacy; assay type: in vivo, human
# Excerpt: as §2
# Eligible patients were postmenopausal women aged 18 years or older with metastatic or unresectable locally recurrent breast cancer that was histologically confirmed as ER+/HER2− invasive breast cancer (any progesterone receptor status), with Ki67 greater than 15% in primary or metastatic tissue, or grade 3 TNBC, to enrich for more highly proliferative cancers that may be more dependent on AURKA. HER2− negative was defined as immunohistochemistry (IHC) status of 0, 1+, or 2+(if IHC was 2+, a negative FISH test was required with a ratio <2.0 and an average HER2 copy number <4.0 signals/cell). ER-negative and progesterone receptor (PR)-negative status was defined as ER and PR less than 1% nuclei positive by IHC. Patients may have been treated with 0 or 1 chemotherapy regimen for advanced disease and with neo/adjuvant taxane therapy at least 12 months before the development of metastatic disease. An Eastern Cooperative Group (ECOG) performance status of 0 or 1 and adequate hematologic, cardiac, renal, and liver function were required. Eligible patients were required to have measurable disease by Response Evaluation Criteria in Solid Tumors (RECIST v 1.1) criteria, or lytic or mixed blastic/lytic bone-only disease. Patients with untreated or progressing brain metastases, or those who required corticosteroids, were not eligible.
# as §1, §3, §4
# The TN and ER-positive, HER2-negative cohorts were analyzed independently, and no change to the statistical plan was made based on the underaccrual to the TN group.
# as §5, §6
# [5] = phase II trial, adverse events (safety population, CTCAE v4.03); assay type: in vivo, human
# Protocol: Safety was assessed throughout the study. Adverse events were graded and reported according to the National Cancer Institute Common Terminology Criteria for Adverse Events (CTCAE version 4.03).
# [6] = Arm 1 (paclitaxel plus alisertib), n=66
# [7] = ER+/HER2− cohort, evaluable patients (P+A n=58, P n=62)
# [8] = TN cohort, evaluable patients (P+A n=16, P n=12)
# [9] = treatment-related, ER+/HER2− and TN cohorts
smiles,measurement,setting,value
"COc1cc(Nc2ncc3c(n2)-c2ccc(Cl)cc2C(c2c(F)cccc2OC)=NC3)ccc1C(=O)O [Alisertib, 4-{[9-chloro-7-(2-fluoro-6-methoxyphenyl)-5H-pyrimido[5,4-d][2]benzazepin-2-yl]amino}-2-methoxybenzoic acid]",Patients with both dose delay and reduction,[1]; [6],(62.1) %
same,Patients with dose delay alone,[1]; [6],(18.2) %
same,Patients with dose discontinuation,[1]; [6],(30.3) %
same,Patients with dose increased,[1]; [6],(1.5) %
same,Patients with dose reduction alone,[1]; [6],(7.6) %
same,Patients with both dose delay and reduction,"[1]; Arm 1 (paclitaxel plus alisertib), n=66, listed as alisertib",62.1%
same,Pgp-mediated efflux of paclitaxel,Pgp,inhibited Pgp-mediated efflux of paclitaxel
same,effect of combination in breast cancer xenograft models,[2],Synergistic or additive effects
"CC(=O)O[C@H]1C(=O)[C@@]2(C)[C@H]([C@H](OC(=O)c3ccccc3)[C@]3(O)C[C@H](OC(=O)[C@H](O)[C@@H](NC(=O)c4ccccc4)c4ccccc4)C(C)=C1C3(C)C)[C@]1(OC(C)=O)CO[C@@H]1C[C@@H]2O [Paclitaxel, (2α,4α,5β,7β,10β,13α)-4,10-Bis(acetyloxy)-13-{[(2R,3S)-3-(benzoylamino)-2-hydroxy-3-phenylpropanoyl]oxy}-1,7-dihydroxy-9-oxo-5,20-epoxytax-11-en-2-yl benzoate]",median (IQR) PFS in patients previously treated with palbociclib,"[3]; 30 patients pretreated with palbociclib for MBC (16 P, 14 P+A), listed as paclitaxel alone",5.6 (3.0-10.6) months and 5.6 months
same,CBR in patients pretreated with palbociclib,[3]; ER+/HER2− cohort,37.5%
same,Best Overall Response: CR,[3]; [7],0%
same,Best Overall Response: PD,[3]; [7],8 (12.9) %
same,Best Overall Response: SD,[3]; [7],33 (53.2) %
same,CBR (CR + PR + SD ≥ 6 months),"[3]; ER+/HER2− cohort, evaluable patients (P+A n=58, P n=62), listed as P",35 (56.5) %
same,CBR (CR + PR + SD ≥ 6 months),"[3]; ER+/HER2− cohort, evaluable patients (P+A n=58, P n=62), listed as paclitaxel alone",56.5%
same,estimated PFS at 12 months,"[3]; ER-positive, HER2-negative MBC",15.4%
same,median (IQR) PFS,"[3]; ER-positive, HER2-negative MBC, intent-to-treat, listed as paclitaxel alone",7.1 (3.8-10.6) months and 7.1 months
same,median (IQR) OS,[3]; median follow-up 22 months,25.1 (11.0-31.4) months
same,median (IQR) PFS,"[4]; 35 patients with TN MBC, intent-to-treat, listed as paclitaxel alone",5.7 (2.9-8.2) months and 5.7 months
same,Best Overall Response: CR,[4]; [8],0%
same,Best Overall Response: PD,[4]; [8],2 (16.7) %
same,Best Overall Response: PR,[4]; [8],5 (41.7) %
same,Best Overall Response: SD,[4]; [8],5 (41.7) %
same,CBR (CR + PR + SD ≥ 6 months),[4]; [8],7 (58.3) %
same,ORR (CR + PR),[4]; [8],5 (41.7) %
same,median (IQR) OS,[4]; median follow-up 13.7 months,12.7 (6.8-23.5) months
same,Patients with both dose delay and reduction,[1]; [6],(16.7) %
same,Patients with dose delay alone,[1]; [6],(63.6) %
same,Patients with dose discontinuation,[1]; [6],(16.7) %
same,Patients with dose increased,[1]; [6],(3.0) %
same,Patients with dose reduction alone,[1]; [6],(1.5) %
same,Patients with dose delay alone,"[1]; Arm 1 (paclitaxel plus alisertib), n=66, listed as paclitaxel",63.6%
same,Patients with both dose delay and reduction,"[1]; Arm 2 (paclitaxel alone), n=70",(31.4) %
same,Patients with dose delay alone,"[1]; Arm 2 (paclitaxel alone), n=70",(14.3) %
same,Patients with dose discontinuation,"[1]; Arm 2 (paclitaxel alone), n=70",(11.4) %
same,Patients with dose increased,"[1]; Arm 2 (paclitaxel alone), n=70",0%
same,Patients with dose reduction alone,"[1]; Arm 2 (paclitaxel alone), n=70",(2.9) %
same,Patients with both dose delay and reduction,"[1]; Arm 2 (paclitaxel alone), n=70, listed as paclitaxel alone",31.4%
same,"grade 3 or 4 anemia, patients",[5]; all patients combined,1.2%
same,"grade 3 or 4 diarrhea, patients",[5]; all patients combined,0%
same,"grade 3 or 4 neutropenia, patients",[5]; all patients combined,16.4%
same,"grade 3 or 4 stomatitis or oral mucositis, patients",[5]; all patients combined,0%
same,"grade 3 or 4 neuropathy, patients",[5]; in vivo,11.40%
same,patients who received standard-dose (5 μg/kg) filgrastim,[5]; in vivo,15.70%
same,Anemia Grade1,[5]; [9],5 (5.9) n (%)
same,Anemia Grade2,[5]; [9],5 (5.9) n (%)
same,Anemia Grade3,[5]; [9],1 (1.2) n (%)
same,Anemia Grade4,[5]; [9],0 n (%)
same,Anemia Total,[5]; [9],11 (12.9) n (%)
same,Diarrhea Grade1,[5]; [9],9 (10.6) n (%)
same,Diarrhea Grade2,[5]; [9],2 (2.4) n (%)
same,Diarrhea Grade3,[5]; [9],0 n (%)
same,Diarrhea Grade4,[5]; [9],0 n (%)
same,Diarrhea Total,[5]; [9],11 (12.9) n (%)
same,Dizziness Grade1,[5]; [9],2 (2.4) n (%)
same,Dizziness Grade2,[5]; [9],0 n (%)
same,Dizziness Grade3,[5]; [9],0 n (%)
same,Dizziness Grade4,[5]; [9],0 n (%)
same,Dizziness Total,[5]; [9],2 (2.4) n (%)
same,Fatigue Grade1,[5]; [9],26 (30.6) n (%)
same,Fatigue Grade2,[5]; [9],6 (7.1) n (%)
same,Fatigue Grade3,[5]; [9],2 (2.4) n (%)
same,Fatigue Grade4,[5]; [9],0 n (%)
same,Fatigue Total,[5]; [9],34 (40.0) n (%)
same,Febrile neutropenia Grade1,[5]; [9],0 n (%)
same,Febrile neutropenia Grade2,[5]; [9],0 n (%)
same,Febrile neutropenia Grade3,[5]; [9],0 n (%)
same,Febrile neutropenia Grade4,[5]; [9],0 n (%)
same,Febrile neutropenia Total,[5]; [9],0 n (%)
same,Headache Grade1,[5]; [9],4 (4.7) n (%)
same,Headache Grade2,[5]; [9],1 (1.2) n (%)
same,Headache Grade3,[5]; [9],0 n (%)
same,Headache Grade4,[5]; [9],0 n (%)
same,Headache Total,[5]; [9],5 (5.9) n (%)
same,Leukopenia Grade1,[5]; [9],2 (2.4) n (%)
same,Leukopenia Grade2,[5]; [9],1 (1.2) n (%)
same,Leukopenia Grade3,[5]; [9],2 (2.4) n (%)
same,Leukopenia Grade4,[5]; [9],0 n (%)
same,Leukopenia Total,[5]; [9],5 (5.9) n (%)
same,Mucositis oral Grade1,[5]; [9],4 (4.7) n (%)
same,Mucositis oral Grade2,[5]; [9],0 n (%)
same,Mucositis oral Grade3,[5]; [9],0 n (%)
same,Mucositis oral Grade4,[5]; [9],0 n (%)
same,Mucositis oral Total,[5]; [9],4 (4.7) n (%)
same,Nausea Grade1,[5]; [9],19 (22.4) n (%)
same,Nausea Grade2,[5]; [9],4 (4.7) n (%)
same,Nausea Grade3,[5]; [9],1 (1.2) n (%)
same,Nausea Grade4,[5]; [9],0 n (%)
same,Nausea Total,[5]; [9],24 (28.2) n (%)
same,Neuropathy Grade1,[5]; [9],9 (12.9) n (%)
same,Neuropathy Grade2,[5]; [9],8 (11.4) n (%)
same,Neuropathy Grade3,[5]; [9],8 (11.4) n (%)
same,Neuropathy Grade4,[5]; [9],0 n (%)
same,Neuropathy Total,[5]; [9],25 (35.7) n (%)
same,Neutropenia Grade1,[5]; [9],1 (1.2) n (%)
same,Neutropenia Grade2,[5]; [9],3 (3.5) n (%)
same,Neutropenia Grade3,[5]; [9],11 (12.9) n (%)
same,Neutropenia Grade4,[5]; [9],3 (3.5) n (%)
same,Neutropenia Total,[5]; [9],18 (21.2) n (%)
same,Stomatitis Grade1,[5]; [9],7 (8.2) n (%)
same,Stomatitis Grade2,[5]; [9],0 n (%)
same,Stomatitis Grade3,[5]; [9],0 n (%)
same,Stomatitis Grade4,[5]; [9],0 n (%)
same,Stomatitis Total,[5]; [9],7 (8.2) n (%)
same,Thrombocytopenia Grade1,[5]; [9],0 n (%)
same,Thrombocytopenia Grade2,[5]; [9],0 n (%)
same,Thrombocytopenia Grade3,[5]; [9],0 n (%)
same,Thrombocytopenia Grade4,[5]; [9],0 n (%)
same,Thrombocytopenia Total,[5]; [9],0 n (%)
